One may read the IC50 as the point on the concentration scale where inhibition reaches its midpoint.

The target of the assay is T1, human GPR84 receptor (Homo sapiens, UniProt Q9NQS5).
T1 construct: frozen aliquots prepared by acCELLerate; host or cells: CHO-K1
T1 sequence (Q9NQS5 whole entry): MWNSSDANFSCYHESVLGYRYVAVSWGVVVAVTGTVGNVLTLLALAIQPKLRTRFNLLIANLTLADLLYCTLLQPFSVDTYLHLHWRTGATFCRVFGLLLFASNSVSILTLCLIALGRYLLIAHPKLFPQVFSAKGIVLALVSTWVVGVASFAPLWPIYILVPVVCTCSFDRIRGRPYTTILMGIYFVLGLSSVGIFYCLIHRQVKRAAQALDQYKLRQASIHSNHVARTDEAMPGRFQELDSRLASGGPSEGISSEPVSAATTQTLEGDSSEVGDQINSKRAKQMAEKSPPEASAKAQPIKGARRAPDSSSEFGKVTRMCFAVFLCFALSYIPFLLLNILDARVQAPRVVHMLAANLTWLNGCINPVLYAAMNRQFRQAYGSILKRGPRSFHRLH
Nature of the assay: cAMP HTRF assay for identification of cellular GPR84 antagonists. The assay is classed as cell-based. The note with it: CHO-K1 cells stably expressing human GPR84; Forskolin + agonist 6-OAU (EC80); average or median values. An outline of the steps:
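IC50 came from 4-parameter fits over 20 μM–0.07 nM (11 points, duplicate), normalized between DMSO (0%) and agonist-free (100% inhibition) wells. Readout: cAMP-d2/Eu-cryptate HTRF in hGPR84 CHO-K1 cells given forskolin plus agonist, compound preincubated 30 min at room temperature.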
In general terms: TR-FRET usually uses a lanthanide donor and a delayed reading to cut background.
Take `C[C@@H]1Cc2oc(C(=O)NCc3cn(C)cn3)c(C(F)(F)F)c2-c2nn(C[C@H]3COCCO3)cc21` (single isomer, unassigned) [Example 314, (4R or 4S)-2-{[(2S)-1,4-dioxan-2-yl]methyl}-4-methyl-N-[(1-methyl-1H-imidazol-4-yl)methyl]-8-(trifluoromethyl)-4,5-dihydro-2H-furo[2,3-g]indazole-7-carboxamide]: the concentration for half-maximal inhibition (IC50) was 40 nM.

For the molecule `Cc1cccc(CNC(=O)c2oc3c(c2C(F)(F)F)-c2nn(C[C@H]4COCCO4)cc2[C@H](C)C3)n1` (single isomer, unassigned) [Example 315, (4R or 4S)-2-{[(2S)-1,4-dioxan-2-yl]methyl}-4-methyl-N-[(6-methylpyridin-2-yl)methyl]-8-(trifluoromethyl)-4,5-dihydro-2H-furo[2,3-g]indazole-7-carboxamide], the half-inhibitory concentration (IC50) worked out at 266 nM.

For the molecule `C[C@@H]1Cc2oc(C(=O)NCc3cncs3)c(C(F)(F)F)c2-c2nn(C[C@H]3COCCO3)cc21` (single isomer, unassigned) [Example 316, (4R or 4S)-2-{[(2S)-1,4-dioxan-2-yl]methyl}-4-methyl-N-[(1,3-thiazol-5-yl)methyl]-8-(trifluoromethyl)-4,5-dihydro-2H-furo[2,3-g]indazole-7-carboxamide], the IC50 was 374 nM. The same measure for `C[C@@H]1Cc2oc(C(=O)NCc3cnc(C4CC4)cn3)c(C(F)(F)F)c2-c2nn(C[C@H]3COCCO3)cc21` (single isomer, unassigned) [Example 322, (4R or 4S)—N-[(5-cyclopropylpyrazin-2-yl)methyl]-2-{[(2S)-1,4-dioxan-2-yl]methyl}-4-methyl-8-(trifluoromethyl)-4,5-dihydro-2H-furo[2,3-g]indazole-7-carboxamide]: 2 nM; for `C[C@@H]1Cc2oc(C(=O)NCc3cnc(Cl)cn3)c(C(F)(F)F)c2-c2nn(C[C@H]3COCCO3)cc21` (single isomer, unassigned) [Example 323, (4R or 4S)—N-[(5-chloropyrazin-2-yl)methyl]-2-{[(2S)-1,4-dioxan-2-yl]methyl}-4-methyl-8-(trifluoromethyl)-4,5-dihydro-2H-furo[2,3-g]indazole-7-carboxamide]: 3 nM. Take `O=C(NC[C@@H]1CCCO1)c1cc2c(o1)CCc1cn(Cc3ccccn3)nc1-2` [Example 1, 2-(pyridin-2-ylmethyl)-N-[(2S)-tetrahydrofuran-2-ylmethyl]-4,5-dihydro-2H-furo[2,3-g]indazole-7-carboxamide]: the IC50 worked out at 1000 nM.

As for `Cc1ccc(CNC(=O)c2oc3c(c2C)-c2nn(Cc4ccccn4)cc2CC3)cc1` [Example 2, 8-methyl-N-[(4-methylphenyl)methyl]-2-[(pyridin-2-yl)methyl]-4,5-dihydro-2H-furo[2,3-g]indazole-7-carboxamide], the IC50 was determined as 78 nM. The same measure for `Cc1c(C(=O)NC[C@H]2CCCO2)oc2c1-c1nn(Cc3ccccn3)cc1CC2` [Example 3-1, 8-methyl-2-(pyridin-2-ylmethyl)-N-[(2R)-tetrahydrofuran-2-ylmethyl]-4,5-dihydro-2H-furo[2,3-g]indazole-7-carboxamide]: 1160 nM; for `Cc1c(C(=O)NCCN2CCN(C)CC2)oc2c1-c1nn(Cc3ccccn3)cc1CC2` [Example 4, 8-methyl-N-[2-(4-methylpiperazin-1-yl)ethyl]-2-(pyridin-2-ylmethyl)-4,5-dihydro-2H-furo[2,3-g]indazole-7-carboxamide]: 1620 nM; for `Cc1c(C(=O)NCc2ncon2)oc2c1-c1nn(Cc3ccccn3)cc1CC2` [Example 5]: 1410 nM. The same measure for `Cc1c(C(=O)NCc2ccon2)oc2c1-c1nn(Cc3ccccn3)cc1CC2` [Example 6, 8-methyl-N-(1,2-oxazol-3-ylmethyl)-2-(pyridin-2-ylmethyl)-4,5-dihydro-2H-furo[2,3-g]indazole-7-carboxamide]: 800 nM; for `Cc1c(C(=O)NCc2cc(C3CC3)on2)oc2c1-c1nn(Cc3ccccn3)cc1CC2` [Example 7, N-[(5-cyclopropyl-1,2-oxazol-3-yl)methyl]-8-methyl-2-(pyridin-2-ylmethyl)-4,5-dihydro-2H-furo[2,3-g]indazole-7-carboxamide]: 150 nM; for `Cc1cc(CNC(=O)c2oc3c(c2C)-c2nn(Cc4ccccn4)cc2CC3)no1` [Example 8, 8-methyl-N-[(5-methyl-1,2-oxazol-3-yl)methyl]-2-(pyridin-2-ylmethyl)-4,5-dihydro-2H-furo[2,3-g]indazole-7-carboxamide]: 210 nM. The same measure for `Cc1c(C(=O)NCC(C)(C)O)oc2c1-c1nn(Cc3ccccn3)cc1CC2` [Example 10, N-(2-hydroxy-2-methylpropyl)-8-methyl-2-(pyridin-2-ylmethyl)-4,5-dihydro-2H-furo[2,3-g]indazole-7-carboxamide]: greater than 20000 nM. For `Cc1c(C(=O)NCc2cc(CN3CCOCC3)on2)oc2c1-c1nn(Cc3ccccn3)cc1CC2` [Example 11, 8-methyl-N-{[5-(morpholin-4-ylmethyl)-1,2-oxazol-3-yl]methyl}-2-(pyridin-2-ylmethyl)-4,5-dihydro-2H-furo[2,3-g]indazole-7-carboxamide], the IC50 is greater than 20000 nM. As to `Cc1c(C(=O)NCCN2CCN(c3ccc(C(F)(F)F)cn3)CC2)oc2c1-c1nn(Cc3ccccn3)cc1CC2` [Example 12, 8-methyl-2-(pyridin-2-ylmethyl)-N-(2-{4-[5-(trifluoromethyl)pyridin-2-yl]piperazin-1-yl}ethyl)-4,5-dihydro-2H-furo[2,3-g]indazole-7-carboxamide], the concentration for half-maximal inhibition (IC50) was 2760 nM. To `Cc1c(C(=O)NCCN2CCN(c3cccc(C(F)(F)F)c3)CC2)oc2c1-c1nn(Cc3ccccn3)cc1CC2` [Example 13, 8-methyl-2-(pyridin-2-ylmethyl)-N-(2-{4-[3-(trifluoromethyl)phenyl]piperazin-1yl}ethyl)-4,5-dihydro-2H-furo[2,3-g]indazole-7-carboxamide] belongs 1650 nM. The same measure for `COc1cccc(-c2cc(CNC(=O)c3oc4c(c3C)-c3nn(Cc5ccccn5)cc3CC4)no2)c1` [Example 14, N-{[5-(3-methoxyphenyl)-1,2-oxazol-3-yl]methyl}-8-methyl-2-(pyridin-2-ylmethyl)-4,5-dihydro-2H-furo[2,3-g]indazole-7-carboxamide]: 4790 nM; for `Cc1nonc1CNC(=O)c1oc2c(c1C)-c1nn(Cc3ccccn3)cc1CC2` [Example 15, 8-methyl-N-[(4-methyl-1,2,5-oxadiazol-3-yl)methyl]-2-(pyridin-2-ylmethyl)-4,5-dihydro-2H-furo[2,3-g]indazole-7-carboxamide]: 2000 nM; for `Cc1c(C(=O)NCc2cnoc2C2CC2)oc2c1-c1nn(Cc3ccccn3)cc1CC2` [Example 16, N-[(5-cyclopropyl-1,2-oxazol-4-yl)methyl]-8-methyl-2-(pyridin-2-ylmethyl)-4,5-dihydro-2H-furo[2,3-g]indazole-7-carboxamide]: 11200 nM. Take `Cc1c(C(=O)NCc2cc(-c3ccccc3Cl)on2)oc2c1-c1nn(Cc3ccccn3)cc1CC2` [Example 17, N-{[5-(2-chlorophenyl)-1,2-oxazol-3-yl]methyl}-8-methyl-2-(pyridin-2-ylmethyl)-4,5-dihydro-2H-furo[2,3-g]indazole-7-carboxamide]: the IC50 amounted to 10100 nM. The same measure for `Cc1c(C(=O)NCc2cc(C(C)C)on2)oc2c1-c1nn(Cc3ccccn3)cc1CC2` [Example 18, N-[(5-isopropyl-1,2-oxazol-3-yl)methyl]-8-methyl-2-(pyridin-2-ylmethyl)-4,5-dihydro-2H-furo[2,3-g]indazole-7-carboxamide]: 97 nM.

Consider `Cc1c(C(=O)NC[C@@H]2COCCO2)oc2c1-c1nn(Cc3ccccn3)cc1CC2` [Example 19-1, N-[(2R)-1,4-dioxan-2-ylmethyl]-8-methyl-2-(pyridin-2-ylmethyl)-4,5-dihydro-2H-furo[2,3-g]indazole-7-carboxamide], for which the IC50 worked out at 64 nM. The same measure for `Cc1c(C(=O)NC[C@H]2COCCO2)oc2c1-c1nn(Cc3ccccn3)cc1CC2` [Example 19-2, N-{[(2S)-1,4-dioxan-2-yl]methyl}-8-methyl-2-[(pyridin-2-yl)methyl]-4,5-dihydro-2H-furo[2,3-g]indazole-7-carboxamide]: 830 nM; for `Cc1c(C(=O)NCc2nnc[nH]2)oc2c1-c1nn(Cc3ccccn3)cc1CC2` [Example 20, 8-methyl-2-(pyridin-2-ylmethyl)-N-(4H-1,2,4-triazol-3-ylmethyl)-4,5-dihydro-2H-furo[2,3-g]indazole-7-carboxamide]: 5070 nM; for `Cc1c(C(=O)NCc2ccccn2)oc2c1-c1nn(Cc3ccccn3)cc1CC2` [Example 21, 8-methyl-N,2-bis(pyridin-2-ylmethyl)-4,5-dihydro-2H-furo[2,3-g]indazole-7-carboxamide]: 300 nM.

Regarding `Cc1c(C(=O)NCc2cc[nH]n2)oc2c1-c1nn(Cc3ccccn3)cc1CC2` [Example 22, 8-methyl-N-(1H-pyrazol-3-ylmethyl)-2-(pyridin-2-ylmethyl)-4,5-dihydro-2H-furo[2,3-g]indazole-7-carboxamide], the concentration for half-maximal inhibition (IC50) was 340 nM.

In the case of `Cc1c(C(=O)NCc2nccs2)oc2c1-c1nn(Cc3ccccn3)cc1CC2` [Example 23, 8-methyl-2-(pyridin-2ylmethyl)-N-(1,3-thiazol-2-ylmethyl)-4,5-dihydro-2H-furo[2,3-g]indazole-7-carboxamide], the IC50 amounted to 160 nM. To `Cc1c(C(=O)NCc2cnoc2)oc2c1-c1nn(Cc3ccccn3)cc1CC2` [Example 24, 8-methyl-N-(1,2-oxazol-4-ylmethyl)-2-(pyridin-2-ylmethyl)-4,5-dihydro-2H-furo[2,3-g]indazole-7-carboxamide] belongs 6560 nM; to `Cc1c(C(=O)NCc2cc(C(F)(F)F)on2)oc2c1-c1nn(Cc3ccccn3)cc1CC2` [Example 25, 8-methyl-2-(pyridin-2-ylmethyl)-N-{[5-(trifluoromethyl)-1,2-oxazol-3-yl]methyl}-4,5-dihydro-2H-furo[2,3-g]indazole-7-carboxamide], 160 nM.

Source of the values: patent US12570666B2, “Furoindazole derivatives” (Bayer Aktiengesellschaft, priority 2019, dated 2026).
